The test system of one assay is Bacillus subtilis. Briefly: Antibacterial activity against Bacillus subtilis ATCC 23857 after 24 hrs by broth microdilution method. It is filed as functional. As to conditions: ATCC 23857, 24 h. In general terms: Broth dilution looks for growth in wells or tubes with falling amounts of substance.
For assay [1], the target named is Matrix metalloproteinase-9 (Homo sapiens) (UniProt P14780). Briefly: Inhibition of MMP9 in inflamed tissue isolated from chronic periodontitis patient at 500 ug/l after 15 to 30 mins by gelatin zymographic method relative to control.
Sequence of Matrix metalloproteinase-9 (Homo sapiens) (P14780 whole entry): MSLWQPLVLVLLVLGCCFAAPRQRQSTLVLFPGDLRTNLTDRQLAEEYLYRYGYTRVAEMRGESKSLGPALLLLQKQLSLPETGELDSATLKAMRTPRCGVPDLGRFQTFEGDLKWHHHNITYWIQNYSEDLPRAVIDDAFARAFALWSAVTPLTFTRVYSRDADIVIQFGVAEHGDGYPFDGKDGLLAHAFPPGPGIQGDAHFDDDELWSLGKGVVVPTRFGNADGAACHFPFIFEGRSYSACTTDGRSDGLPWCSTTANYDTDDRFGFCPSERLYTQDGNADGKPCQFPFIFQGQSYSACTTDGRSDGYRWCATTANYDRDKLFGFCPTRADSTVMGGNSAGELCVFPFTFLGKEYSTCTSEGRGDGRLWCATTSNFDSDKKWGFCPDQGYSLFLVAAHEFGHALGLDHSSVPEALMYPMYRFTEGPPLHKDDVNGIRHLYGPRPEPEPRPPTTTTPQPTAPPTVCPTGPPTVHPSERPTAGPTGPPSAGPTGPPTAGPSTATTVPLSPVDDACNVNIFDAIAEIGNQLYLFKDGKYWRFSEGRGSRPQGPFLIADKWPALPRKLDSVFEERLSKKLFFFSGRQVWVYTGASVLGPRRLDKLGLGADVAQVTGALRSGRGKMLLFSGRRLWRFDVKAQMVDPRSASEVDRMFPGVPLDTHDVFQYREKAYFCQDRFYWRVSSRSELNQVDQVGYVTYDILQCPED
A further assay has as its system Pseudomonas aeruginosa. The assay is described as follows: Antibacterial activity against Pseudomonas aeruginosa ATCC 25619 after 24 hrs by broth microdilution method. It is filed as functional. As to conditions: ATCC 25619, 24 h.
Assay [2] concerns the target 72 kDa type IV collagenase (Homo sapiens) (UniProt P08253). The assay is described as follows: Inhibition of MMP2 in inflamed tissue isolated from chronic periodontitis patient at 500 ug/l after 15 to 30 mins by gelatin zymographic method relative to control.
The test system of another assay is Escherichia coli. The assay is described as follows: Antibacterial activity against Escherichia coli ATCC 25922 after 24 hrs by broth microdilution method. It is filed as functional. As to conditions: ATCC 25922, 24 h.
For the next assay, the system named is Staphylococcus aureus. The assay is described as follows: Antibacterial activity against Staphylococcus aureus ATCC 12598 after 24 hrs by broth microdilution method. It is filed as functional. As to conditions: ATCC 12598, 24 h.

For twelve compounds, MIC and inhibition results are on record in ChEMBL document CHEMBL3877313, “3,4-Dihydropyrimidinone-coumarin analogues as a new class of selective agent against S. aureus: Synthesis, biological evaluation and molecular modelling study” (2017).

The structures appear in SMILES notation. In brackets after ≈: the same amount, converted by molar mass. Some results are limits rather than exact numbers.

Sequence of 72 kDa type IV collagenase (Homo sapiens) (P08253 110-660 limits assumed): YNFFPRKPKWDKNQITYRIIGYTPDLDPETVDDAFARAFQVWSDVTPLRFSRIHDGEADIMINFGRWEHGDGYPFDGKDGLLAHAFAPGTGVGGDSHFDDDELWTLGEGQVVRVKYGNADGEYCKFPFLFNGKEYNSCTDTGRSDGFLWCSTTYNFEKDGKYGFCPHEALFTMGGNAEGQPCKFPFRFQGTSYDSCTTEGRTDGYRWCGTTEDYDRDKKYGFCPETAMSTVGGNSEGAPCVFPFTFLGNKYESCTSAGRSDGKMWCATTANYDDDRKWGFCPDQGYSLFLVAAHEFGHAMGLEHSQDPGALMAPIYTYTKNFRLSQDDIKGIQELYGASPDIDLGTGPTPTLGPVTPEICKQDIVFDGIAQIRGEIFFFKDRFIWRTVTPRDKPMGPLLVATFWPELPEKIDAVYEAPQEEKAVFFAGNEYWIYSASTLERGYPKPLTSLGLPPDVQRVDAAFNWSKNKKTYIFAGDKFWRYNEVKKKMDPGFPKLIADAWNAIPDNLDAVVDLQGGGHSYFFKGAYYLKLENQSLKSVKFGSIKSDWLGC

For the compound `CCOC(=O)C1=C(C)NC(=S)NC1c1cc(=O)oc2cc(C)ccc12` (configuration not stated), the MIC in the assay with Bacillus subtilis is 50 µg/mL (≈ 140 µM); with Pseudomonas aeruginosa, 100 µg/mL (≈ 279 µM); against Escherichia coli it was 25 µg/mL (≈ 69.8 µM); with Staphylococcus aureus it was 6.25 µg/mL (≈ 17.4 µM). Also, the inhibition in assay [1] was determined as 30%; in assay [2] it was 80%.
Consider `O=C(O)c1cn(C2CC2)c2cc(N3CCNCC3)c(F)cc2c1=O` [CIPROFLOXACIN], for which the values for the MIC in the assay on Bacillus subtilis, in the assay with Pseudomonas aeruginosa and with Staphylococcus aureus were 2 µg/mL (≈ 6.04 µM), less than 4 µg/mL and 2 µg/mL (≈ 6.04 µM), respectively.
Take `CCOC(=O)C1=C(C)NC(=O)NC1c1cc(=O)oc2cc(C)ccc12` (configuration not stated): the MIC in the assay with Bacillus subtilis was 50 µg/mL (≈ 146 µM); with Pseudomonas aeruginosa, 100 µg/mL (≈ 292 µM); against Escherichia coli, 12.5 µg/mL (≈ 36.5 µM); in the assay on Staphylococcus aureus it was 0.2 µg/mL (≈ 0.584 µM). Also, the results for the inhibition in assay [1] and in assay [2] were 70% and 95%, respectively.
With `CCOC(=O)C1=C(C)NC(=S)NC1c1cc(=O)oc2c1ccc1ccccc12` (configuration not stated), the MIC was found to be 100 µg/mL (≈ 254 µM) against Bacillus subtilis, 100 µg/mL (≈ 254 µM) against Pseudomonas aeruginosa, 0.4 µg/mL (≈ 1.01 µM) against Escherichia coli and 0.4 µg/mL (≈ 1.01 µM) in the assay with Staphylococcus aureus. In addition, the inhibition in assay [1] turned out to be 95%; in assay [2], 90%.
Regarding `CCOC(=O)C1=C(C)NC(=O)NC1c1cc(=O)oc2ccc(C)cc12` (configuration not stated), the MIC with Bacillus subtilis came out at 12.5 µg/mL (≈ 36.5 µM); in the assay on Pseudomonas aeruginosa it was 100 µg/mL (≈ 292 µM); against Escherichia coli, 50 µg/mL (≈ 146 µM); against Staphylococcus aureus, 0.4 µg/mL (≈ 1.17 µM). Also, the inhibition in assay [1] came out at 80%; in assay [2], 90%.
Take `CCOC(=O)C1=C(C)NC(=O)NC1c1cc(=O)oc2c1ccc1ccccc12` (configuration not stated): the MIC with Bacillus subtilis was 100 µg/mL (≈ 264 µM); against Pseudomonas aeruginosa, 25 µg/mL (≈ 66.1 µM); against Escherichia coli, 25 µg/mL (≈ 66.1 µM); with Staphylococcus aureus, 0.4 µg/mL (≈ 1.06 µM). Further, the inhibition was 90% in assay [1] and 96% in assay [2].
As to `CCOC(=O)C1=C(C)NC(=O)NC1c1cc(=O)oc2ccc(Cl)cc12` (configuration not stated), the MIC stood at 100 µg/mL (≈ 276 µM) with Bacillus subtilis, 50 µg/mL (≈ 138 µM) in the assay on Pseudomonas aeruginosa, 25 µg/mL (≈ 68.9 µM) in the assay on Escherichia coli and 3.12 µg/mL (≈ 8.6 µM) in the assay on Staphylococcus aureus. The inhibition in assay [2] amounted to 85%.
As for `CCOC(=O)C1=C(C)NC(=S)NC1c1cc(=O)oc2ccc(Cl)cc12` (configuration not stated), the MIC worked out at 50 µg/mL (≈ 132 µM) in the assay on Bacillus subtilis, 100 µg/mL (≈ 264 µM) against Pseudomonas aeruginosa, 0.4 µg/mL (≈ 1.06 µM) in the assay with Escherichia coli and 0.8 µg/mL (≈ 2.11 µM) in the assay on Staphylococcus aureus. Also, the inhibition in assay [2] was determined as 85%.
With `CCOC(=O)C1=C(C)NC(=S)NC1c1cc(=O)oc2ccc(OC)cc12` (configuration not stated), the minimal inhibitory concentration (MIC) in the assay with Bacillus subtilis came to 50 µg/mL (≈ 134 µM); in the assay on Pseudomonas aeruginosa, 100 µg/mL (≈ 267 µM); against Escherichia coli it was 25 µg/mL (≈ 66.8 µM); in the assay on Staphylococcus aureus, 0.8 µg/mL (≈ 2.14 µM). For the same compound, the inhibition in assay [1] was found to be 10%; in assay [2] it was 87%.
On to `CCOC(=O)C1=C(C)NC(=S)NC1c1cc(=O)oc2ccc(C)cc12` (configuration not stated), for which the MIC in the assay with Bacillus subtilis came out at 100 µg/mL (≈ 279 µM); in the assay on Pseudomonas aeruginosa it was 100 µg/mL (≈ 279 µM); against Escherichia coli, 1.6 µg/mL (≈ 4.46 µM); against Staphylococcus aureus it was 0.4 µg/mL (≈ 1.12 µM). In assay [2], this compound displayed an inhibition of 82%.
As to `CN(C)[C@@H]1C(O)=C(C(N)=O)C(=O)[C@@]2(O)C(O)=C3C(=O)c4c(O)cccc4[C@@](C)(O)[C@H]3C[C@@H]12`, the inhibition in assay [1] and in assay [2] was 100% each time.
For the compound `CCOC(=O)C1=C(C)NC(=O)NC1c1cc(=O)oc2ccc(OC)cc12` (configuration not stated), the MIC came out at 100 µg/mL (≈ 279 µM) with Bacillus subtilis, 25 µg/mL (≈ 69.8 µM) in the assay on Pseudomonas aeruginosa, 50 µg/mL (≈ 140 µM) with Escherichia coli and 0.8 µg/mL (≈ 2.23 µM) with Staphylococcus aureus. In addition, the inhibition was determined as 85% in assay [1] and 95% in assay [2].

Usually MIC stands for the lowest concentration found to suppress growth. A low value points to inhibition by little substance. The inhibition is the percentage by which the read-out fell short of the control.
